# Experiments:
# Mus musculus [1] = assay: Average change in weight is tested in mice at a dose of 8 mg/kg; format: functional; design: unit not given here
# Mus musculus [2] = assay: Average change in weight is tested in mice at a dose of 2 mg/kg; format: functional; design: unit not given here
# Mus musculus [3] = assay: Average change in weight is tested in mice at a dose of 16 mg/kg; format: functional; design: unit not given here
# P388 [4] = assay: Tested on P-388 Leukemia for median survival time treated to median survival time control when administered intraperitoneally at a dose of 16 mg/kg; format: functional, Mus musculus; conditions: route intraperitoneal
# P388 [5] = assay: Tested on P-388 Leukemia for median survival time treated to median survival time control when administered intraperitoneally at a dose of 4 mg/kg; format: functional, Mus musculus; conditions: route intraperitoneal
# P388 [6] = assay: Tested on P-388 Leukemia for median survival time treated to median survival time control when administered intraperitoneally at a dose of 2 mg/kg; format: functional, Mus musculus; conditions: route intraperitoneal
# Mus musculus [7] = assay: Average change in weight is tested in mice at a dose of 4 mg/kg; format: functional; design: unit not given here
# P388 [8] = assay: Tested on P-388 Leukemia for median survival time treated to median survival time control when administered intraperitoneally at a dose of 8 mg/kg; format: functional, Mus musculus; conditions: route intraperitoneal
# Mus musculus [9] = assay: Average change in weight is tested in mice at a dose of 8 mg/kg; Toxic; format: functional, organism-based; design: dose 8 mg/kg
# Mus musculus [10] = assay: Average change in weight is tested in mice at a dose of 1 mg/kg; format: functional; design: unit not given here
# P388 [11] = assay: Tested on P-388 Leukemia for median survival time treated to median survival time control when administered intraperitoneally at a dose of 1 mg/kg; format: functional, Mus musculus; conditions: route intraperitoneal
# P388 [12] = assay: Tested on P-388 Leukemia for median survival time treated to median survival time control when administered intraperitoneally at a dose of 8 mg/kg; Toxic; format: functional, organism-based; design: dose 8 mg/kg; conditions: Mus musculus
# Mus musculus [13] = assay: Average change in weight is tested in mice at a dose of 0.5 mg/kg; format: functional
# P388 [14] = assay: Tested on P-388 Leukemia for median survival time treated to median survival time control when administered intraperitoneally at a dose of 0.25 mg/kg; format: functional, Mus musculus; conditions: route intraperitoneal
# P388 [15] = assay: Tested on P-388 Leukemia for median survival time treated to median survival time control when administered intraperitoneally at a dose of 0.5 mg/kg; format: functional, Mus musculus; conditions: route intraperitoneal
# Mus musculus [16] = assay: Average change in weight is tested in mice at a dose of 0.25 mg/kg; format: functional
# P388 [17] = assay: Tested on P-388 Leukemia for median survival time treated to median survival time control when administered intraperitoneally at a dose of 4 mg/kg; Toxic; format: functional, organism-based; design: dose 4 mg/kg; conditions: Mus musculus
# Mus musculus [18] = assay: Average change in weight is tested in mice at a dose of 4 mg/kg; Toxic; format: functional, organism-based; design: dose 4 mg/kg
Structure (SMILES),Activity (Mus musculus [1]),Activity (Mus musculus [2]),Activity (Mus musculus [3]),T/C (P388 [4]),T/C (P388 [5]),T/C (P388 [6]),Activity (Mus musculus [7]),T/C (P388 [8]),Activity (Mus musculus [9]),Activity (Mus musculus [10]),T/C (P388 [11]),T/C (P388 [12]),Activity (Mus musculus [13]),T/C (P388 [14]),T/C (P388 [15]),Activity (Mus musculus [16]),T/C (P388 [17]),Activity (Mus musculus [18])
COc1cc(OC2CC(OC(C)=O)C(OC3CC(O)C(OC)C(C)O3)C(C)O2)cc2cc3c(c(OC)c12)C(=O)C(OC1CC(OC2CC(OC4CC(C)(O)C(OC(=O)C(C)C)C(C)O4)C(O)C(C)O2)C(O)C(C)O1)C(C(OC)C(=O)C(O)C(C)O)C3 (centres undefined),0.4,0.3,0.9,140%,130%,115%,0.2,155%,–,–,–,–,–,–,–,–,–,–
COC(C(=O)C1OC2(CCCCC2)OC1C)C1Cc2cc3cc(OC4CC(OC(C)=O)C(OC5CC(O)C(OC)C(C)O5)C(C)O4)cc(O)c3c(O)c2C(=O)C1OC1CC(OC2CC(OC3CC(C)(O)C(OC(=O)C(C)C)C(C)O3)C(O)C(C)O2)C(O)C(C)O1 (centres undefined),0.2,1,0.7,100%,100%,111%,0,139%,–,–,–,–,–,–,–,–,–,–
COC1C(O)CC(OC2C(C)OC(Oc3cc(O)c4c(O)c5c(cc4c3)CC(C(OC)C(O)C(O)C(C)O)C(OC3CC(OC4CC(OC6CC(C)(O)C(OC(=O)C(C)C)C(C)O6)C(O)C(C)O4)C(O)C(C)O3)C5)CC2OC(C)=O)OC1C (centres undefined),3.5,5.3,0.5,139%,100%,100%,3.7,106%,–,–,–,–,–,–,–,–,–,–
C/N=C(\C(O)C(C)O)C(OC)C1Cc2cc3cc(OC4CC(OC(C)=O)C(OC5CC(O)C(OC)C(C)O5)C(C)O4)cc(O)c3c(O)c2C(=O)C1OC1CC(OC2CC(OC3CC(C)(O)C(OC(=O)C(C)C)C(C)O3)C(O)C(C)O2)C(O)C(C)O1 (centres undefined),–,0.1,–,–,155%,140%,2.4,–,Toxic,1.1,122%,Toxic,–,–,–,–,–,–
COC1C(O)CC(OC2C(C)OC(Oc3cc(O)c4c(O)c5c(cc4c3)CC(C(OC)C(O)C(O)C(C)O)C(OC3CC(OC4CC(OC6CC(C)(O)C(OC(=O)C(C)C)C(C)O6)C(O)C(C)O4)C(O)C(C)O3)C5=O)CC2OC(C)=O)OC1C (centres undefined),0.2,1.1,0.9,130%,125%,90%,0.2,140%,–,–,–,–,–,–,–,–,–,–
C/N=C(\C(O)C(C)O)C(OC)C1Cc2cc3cc(OC4CC(OC(C)=O)C(OC5CC(O)C(OC)C(C)O5)C(C)O4)cc(O)c3c(O)c2CC1OC1CC(OC2CC(OC3CC(C)(O)C(OC(=O)C(C)C)C(C)O3)C(O)C(C)O2)C(O)C(C)O1 (centres undefined),-3.3,-0.3,–,–,110%,140%,0.4,115%,–,0.3,125%,–,–,–,–,–,–,–
COC(C(=O)C(O)C(C)O)C1Cc2cc3cc(OC4CC(OC(C)=O)C(OC5CC(O)C(OC)C(C)O5)C(C)O4)c([N+](=O)[O-])c(O)c3c(O)c2C(=O)C1OC1CC(OC2CC(OC3CC(C)(O)C(OC(=O)C(C)C)C(C)O3)C(O)C(C)O2)C(O)C(C)O1 (centres undefined),3.5,2.8,2.4,100%,110%,100%,2,100%,–,–,–,–,–,–,–,–,–,–
CO/N=C(\C(O)C(C)O)C(OC)C1Cc2cc3cc(OC4CC(OC(C)=O)C(OC5CC(O)C(OC)C(C)O5)C(C)O4)cc(O)c3c(O)c2C(=O)C1OC1CC(OC2CC(OC3CC(C)(O)C(OC(=O)C(C)C)C(C)O3)C(O)C(C)O2)C(O)C(C)O1 (centres undefined),2.8,0.3,–,–,156%,167%,1.3,144%,–,0.9,144%,–,0.8,128%,156%,1.3,–,–
COC(/C(=N/O)C(O)C(C)O)C1Cc2cc3cc(OC4CC(OC(C)=O)C(OC5CC(O)C(OC)C(C)O5)C(C)O4)cc(O)c3c(O)c2C(=O)C1OC1CC(OC2CC(OC3CC(C)(O)C(OC(=O)C(C)C)C(C)O3)C(O)C(C)O2)C(O)C(C)O1 (centres undefined),0.8,1.3,–,–,–,155%,0.8,–,–,–,100%,–,–,–,100%,–,Toxic,Toxic
COC(C(=O)C(O)C(C)O)C1Cc2cc3cc(OC4CC(OC(C)=O)C(OC5CC(O)C(OC)C(C)O5)C(C)O4)c(Br)c(O)c3c(O)c2C(=O)C1OC1CC(OC2CC(OC3CC(C)(O)C(OC(=O)C(C)C)C(C)O3)C(O)C(C)O2)C(O)C(C)O1 (centres undefined),0.1,0.3,0.1,130%,120%,110%,1.2,150%,–,–,–,–,–,–,–,–,–,–
COC(C(=O)C1OC(C)(C)OC1C)C1Cc2cc3cc(OC4CC(OC(C)=O)C(OC5CC(O)C(OC)C(C)O5)C(C)O4)cc(O)c3c(O)c2C(=O)C1OC1CC(OC2CC(OC3CC(C)(O)C(OC(=O)C(C)C)C(C)O3)C(O)C(C)O2)C(O)C(C)O1 (centres undefined),0.8,0.6,1.3,167%,139%,117%,0.3,156%,–,–,–,–,–,–,–,–,–,–
COc1cc(OC2CC(OC(C)=O)C(OC3CC(O)C(OC)C(C)O3)C(C)O2)cc2cc3c(c(O)c12)C(=O)C(OC1CC(OC2CC(OC4CC(C)(O)C(OC(=O)C(C)C)C(C)O4)C(O)C(C)O2)C(O)C(C)O1)C(C(OC)C(=O)C(O)C(C)O)C3 (centres undefined),–,0.7,–,–,156%,156%,1.3,–,–,1.3,144%,–,1.3,106%,133%,1.3,–,–
COC(C(=O)C(O)C(C)O)C1Cc2cc3cc(OC4CC(OC(C)=O)C(OC5CC(O)C(OC)C(C)O5)C(C)O4)cc(O)c3c(O)c2CC1OC1CC(OC2CC(OC3CC(C)(O)C(OC(=O)C(C)C)C(C)O3)C(O)C(C)O2)C(O)C(C)O1 (centres undefined),1,0.7,–,–,140%,150%,0.7,150%,–,1.1,110%,–,–,–,–,–,–,–
COC(/C(=N/NC(N)=O)C(O)C(C)O)C1Cc2cc3cc(OC4CC(OC(C)=O)C(OC5CC(O)C(OC)C(C)O5)C(C)O4)cc(O)c3c(O)c2C(=O)C1OC1CC(OC2CC(OC3CC(C)(O)C(OC(=O)C(C)C)C(C)O3)C(O)C(C)O2)C(O)C(C)O1 (centres undefined),1.2,1.8,-2.3,105%,110%,85%,1.3,110%,–,–,–,–,–,–,–,–,–,–
COC(C(=O)C(O)C(C)O)C1Cc2cc3cc(OC4CC(OC(C)=O)C(OC5CC(O)C(OC)C(C)O5)C(C)O4)cc(O)c3c(O)c2C(=O)C1OC1CC(OC2CC(OC3CC(C)(O)C(OC(=O)C(C)C)C(C)O3)C(O)C(C)O2)C(O)C(C)O1 (centres undefined),–,0,–,–,157%,146%,0.4,–,–,0.3,130%,–,1,–,114%,–,–,–
COC(/C(=N/Nc1ccccc1)C(O)C(C)O)C1Cc2cc3cc(OC4CC(OC(C)=O)C(OC5CC(O)C(OC)C(C)O5)C(C)O4)cc(O)c3c(O)c2C(=O)C1OC1CC(OC2CC(OC3CC(C)(O)C(OC(=O)C(C)C)C(C)O3)C(O)C(C)O2)C(O)C(C)O1 (centres undefined),0.5,0.2,1.3,140%,120%,120%,0.5,140%,–,–,–,–,–,–,–,–,–,–

# From ChEMBL document CHEMBL1121420, “Preparation and antitumor activity of olivomycin A analogues” (1980)
